Experimental data taken from patent US10131652B2, “Pyrimidinyloxy benzene derivatives as herbicides” (E. I. DU PONT DE NEMOURS AND COMPANY, priority 2014, dated 2018).
Like-named read-outs stand apart in the source and are kept apart here.

Assays:
Assay type in all cases: in vivo
[1] = test system: barnyardgrass (Echinochloa crus-galli); test: Test B pre-/postemergence plant response; conditions: Echinochloa crus-galli, 240 h, read-out: Plant response rating, Barnyardgrass; for pest or weed control at 125 g/ha: 125 g ai/ha; for pest or weed control at 500 g/ha: 500 g ai/ha; for pest or weed control at 500 g/ha / pest or weed control at 1000 g/ha: 0 to 100 scale (0 no effect, 100 complete control); for pest or weed control at 1000 g/ha: 1000 g ai/ha
How it was run: (§1)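 Scoring used a 0–100 scale (100 = complete control) by visual comparison with untreated plants after approximately 10 days in the greenhouse. Compounds, in surfactant-containing non-phytotoxic solvent, were sprayed onto soil at planting or onto 2–10 cm seedlings.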

[2] = test system: corn (Zea mays); test: Test B pre-/postemergence plant response; conditions: Zea mays, 240 h; for Corn plant response rating (crop injury, 0 = no effect, 100 = complete kill) at 125 g/ha: 125 g ai/ha; for Corn plant response rating (crop injury, 0 = no effect, 100 = complete kill) at 500 g/ha: 500 g ai/ha; for Corn plant response rating (crop injury, 0 = no effect, 100 = complete kill) at 500 g/ha / Corn plant response rating (crop injury, 0 = no effect, 100 = complete kill) at 1000 g/ha: 0 to 100 scale (0 no effect, 100 complete control); for Corn plant response rating (crop injury, 0 = no effect, 100 = complete kill) at 1000 g/ha: 1000 g ai/ha
How it was run: as §1

[3] = test system: wheat (Triticum aestivum); test: Test B pre-/postemergence plant response; conditions: Triticum aestivum, 240 h, read-out: Plant response rating, Wheat; for plant injury at 125 g/ha: 125 g ai/ha; for plant injury at 500 g/ha: 500 g ai/ha; for plant injury at 500 g/ha / plant injury at 1000 g/ha: 0 to 100 scale (0 no effect, 100 complete control); for plant injury at 1000 g/ha: 1000 g ai/ha
How it was run: as §1

[4] = test system: pigweed (Amaranthus retroflexus); test: Test B pre-/postemergence plant response; conditions: Amaranthus retroflexus, 240 h, read-out: Plant response rating, Pigweed; for pest or weed control at 125 g/ha: 125 g ai/ha; for pest or weed control at 500 g/ha: 500 g ai/ha; for pest or weed control at 500 g/ha / pest or weed control at 1000 g/ha: 0 to 100 scale (0 no effect, 100 complete control); for pest or weed control at 1000 g/ha: 1000 g ai/ha
How it was run: as §1

[5] = test system: giant foxtail (Setaria faberii); test: Test B pre-/postemergence plant response; conditions: Setaria faberi, 240 h, read-out: Plant response rating, Foxtail, Giant; for pest or weed control at 125 g/ha: 125 g ai/ha; for pest or weed control at 500 g/ha: 500 g ai/ha; for pest or weed control at 500 g/ha / pest or weed control at 1000 g/ha: 0 to 100 scale (0 no effect, 100 complete control); for pest or weed control at 1000 g/ha: 1000 g ai/ha
How it was run: as §1

[6] = test system: barnyardgrass (Echinochloa crus-galli); test: Test C flooded paddy test plant response; conditions: Echinochloa crus-galli; Flood, 250 g ai/ha; scale of 0 to 100 where 0 is no effect and 100 is complete control; 13 to 15 days; read-out: Barnyardgrass plant response rating
How it was run: (§2)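 Scale 0 (no effect) to 100 (complete control), assigned visually versus controls after 13–15 d greenhouse. Application: directly to paddy water, 3 cm flood depth kept constant, 2-leaf stage.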

[7] = test system: ducksalad (Heteranthera limosa); test: Test C flooded paddy test plant response; conditions: Heteranthera limosa; Flood, 250 g ai/ha; scale of 0 to 100 where 0 is no effect and 100 is complete control; 13 to 15 days; read-out: Ducksalad plant response rating
How it was run: as §2

[8] = test system: small-flower umbrella sedge (Cyperus difformis); test: Test C flooded paddy test plant response; conditions: Cyperus difformis; Flood, 250 g ai/ha; scale of 0 to 100 where 0 is no effect and 100 is complete control; 13 to 15 days; read-out: Sedge, Umbrella plant response rating
How it was run: as §2

[9] = test system: rice (Oryza sativa); test: Test C flooded paddy test plant response; conditions: Oryza sativa; Flood, 250 g ai/ha; scale of 0 to 100 where 0 is no effect and 100 is complete control; 13 to 15 days; read-out: Rice plant response rating
How it was run: as §2

[10] = post-emergence, postemergence, 0 to 100 scale, 0 no effect, 100 complete control
[11] = pre-emergence, Preemergence, 0 to 100 scale where 0 is no effect and 100 is complete control

SMILES	pest or weed control at 125 g/ha [1, 10] [%]	pest or weed control at 500 g/ha ([1]; post-emergence, Postemergence) [%]	pest or weed control at 125 g/ha [1, 11] [%]	pest or weed control at 500 g/ha ([1]; pre-emergence, Preemergence) [%]	Corn plant response rating (crop injury, 0 = no effect, 100 = complete kill) at 125 g/ha [2, 10] [%]	Corn plant response rating (crop injury, 0 = no effect, 100 = complete kill) at 500 g/ha ([2]; post-emergence, Postemergence) [%]	Corn plant response rating (crop injury, 0 = no effect, 100 = complete kill) at 125 g/ha [2, 11] [%]	Corn plant response rating (crop injury, 0 = no effect, 100 = complete kill) at 500 g/ha ([2]; pre-emergence, Preemergence) [%]	plant injury at 125 g/ha [3, 10] [%]	plant injury at 500 g/ha ([3]; post-emergence, Postemergence) [%]	plant injury at 125 g/ha [3, 11] [%]	plant injury at 500 g/ha ([3]; pre-emergence, Preemergence) [%]	pest or weed control at 125 g/ha [4, 10] [%]	pest or weed control at 500 g/ha ([4]; post-emergence, Postemergence) [%]	pest or weed control at 125 g/ha [4, 11] [%]	pest or weed control at 500 g/ha ([4]; pre-emergence, Preemergence) [%]	pest or weed control at 125 g/ha [5, 10] [%]	pest or weed control at 500 g/ha ([5]; post-emergence, Postemergence) [%]	pest or weed control at 125 g/ha [5, 11] [%]	pest or weed control at 500 g/ha ([5]; pre-emergence, Preemergence) [%]	further results
FC(F)(F)c1nccc(-c2ccccc2Oc2ncc(Br)cn2)n1 [Compound 21, 4-[2-[(5-bromo-2-pyrimidinyl)oxy]phenyl]-2-(trifluoromethyl)pyrimidine]	0	60	0	50	0	40	0	0	0	0	0	0	80	100	30	90	0	60	70	100	pest or weed control at 250 g/ha [6]: 0%; pest or weed control at 250 g/ha [7]: 0%; pest or weed control at 250 g/ha [8]: 0%; plant injury at 250 g/ha [9]: 0%
Cc1ccc(Oc2ncc(Cl)cn2)c(-c2ccc(C(F)(F)F)nc2)c1 [Compound 22, 5-chloro-2-[4-methyl-2-[6-(trifluoromethyl)-3-pyridinyl]phenoxy]pyrimidine]	0	0	0	0	0	0	0	0	0	0	0	0	0	0	0	0	0	0	0	0	pest or weed control at 250 g/ha [6]: 0%; pest or weed control at 250 g/ha [7]: 0%; pest or weed control at 250 g/ha [8]: 0%; plant injury at 250 g/ha [9]: 0%
Clc1ccc(-c2c(Cl)cccc2Oc2ncc(Cl)cn2)nc1 [Compound 23, 5-chloro-2-[3-chloro-2-(5-chloro-2-pyridinyl)phenoxy]pyrimidine]	0	50	0	30	10	20	0	0	0	0	0	0	70	100	50	90	10	70	20	70	pest or weed control at 1000 g/ha ([1]; post-emergence, Postemergence): 50%; pest or weed control at 1000 g/ha ([1]; pre-emergence, Preemergence): 40%; Corn plant response rating (crop injury, 0 = no effect, 100 = complete kill) at 1000 g/ha ([2]; post-emergence, Postemergence): 20%; Corn plant response rating (crop injury, 0 = no effect, 100 = complete kill) at 1000 g/ha ([2]; pre-emergence, Preemergence): 0%; plant injury at 1000 g/ha ([3]; post-emergence, Postemergence): 0%; plant injury at 1000 g/ha ([3]; pre-emergence, Preemergence): 0%; pest or weed control at 1000 g/ha ([4]; post-emergence, Postemergence): 100%; pest or weed control at 1000 g/ha ([4]; pre-emergence, Preemergence): 100%; pest or weed control at 1000 g/ha ([5]; post-emergence, Postemergence): 70%; pest or weed control at 1000 g/ha ([5]; pre-emergence, Preemergence): 100%; pest or weed control at 250 g/ha [6]: 0%; pest or weed control at 250 g/ha [7]: 60%; pest or weed control at 250 g/ha [8]: 40%; plant injury at 250 g/ha [9]: 0%
Cc1ccc(Oc2ncc(Cl)cn2)c(-c2ccnc(C(F)(F)F)c2)c1 [Compound 24, 5-chloro-2-[4-methyl-2-[2-(trifluoromethyl)-4-pyridinyl]phenoxy]pyrimidine]	0	60	10	80	0	40	0	40	0	0	0	0	20	40	0	40	30	90	20	90	pest or weed control at 250 g/ha [6]: 0%; pest or weed control at 250 g/ha [7]: 0%; pest or weed control at 250 g/ha [8]: 40%; plant injury at 250 g/ha [9]: 0%
